Assay results as given in patent US20210299059A1, “INJECTABLE PHARMACEUTICAL COMPOSITION AND PREPARATION METHOD THEREFOR” (Jiangsu Hengrui Medicine CO., LTD., priority 2018, published 2021).

Legend:
[1] = Pharmacokinetics study, subcutaneous apixaban injection (Embodiment 4); format: in vivo, humans; settings: human, plasma, sc, 2.5 mg, plasma drug concentration of apixaban, 1 mL of 2.5 mg/mL apixaban injection subcutaneously
[2] = cited from earlier work
[3] = cited from earlier work; remark: listed apart in the source

Structure (SMILES): COc1ccc(-n2nc(C(N)=O)c3c2C(=O)N(c2ccc(N4CCCCC4=O)cc2)CC3)cc1 [apixaban, Apixaban]
- concentration at 0 h ([1]; Mean of three subjects): 0 µg/mL
- concentration at 0.25 h ([1]; Mean of three subjects): 0.00619 µg/mL
- concentration at 0.5 h ([1]; Mean of three subjects): 0.0145 µg/mL
- concentration at 1 h ([1]; Mean of three subjects): 0.0271 µg/mL
- concentration at 2 h ([1]; Mean of three subjects): 0.0406 µg/mL
- concentration at 3 h ([1]; Mean of three subjects): 0.0473 µg/mL
- concentration at 4 h ([1]; Mean of three subjects): 0.0512 µg/mL
- concentration at 5 h ([1]; Mean of three subjects): 0.0434 µg/mL
- concentration at 6 h ([1]; Mean of three subjects): 0.0416 µg/mL
- concentration at 8 h ([1]; Mean of three subjects): 0.0393 µg/mL
- concentration at 10 h ([1]; Mean of three subjects): 0.0322 µg/mL
- concentration at 16 h ([1]; Mean of three subjects): 0.0212 µg/mL
- concentration at 24 h ([1]; Mean of three subjects): 0.0138 µg/mL
- concentration at 0 h ([1]; subject C-01): 0 µg/mL
- concentration at 0.25 h ([1]; subject C-01): 0.00808 µg/mL
- concentration at 0.5 h ([1]; subject C-01): 0.0182 µg/mL
- concentration at 1 h ([1]; subject C-01): 0.0358 µg/mL
- concentration at 2 h ([1]; subject C-01): 0.052 µg/mL
- concentration at 3 h ([1]; subject C-01): 0.0621 µg/mL
- concentration at 4 h ([1]; subject C-01): 0.0688 µg/mL
- concentration at 5 h ([1]; subject C-01): 0.0524 µg/mL
- concentration at 6 h ([1]; subject C-01): 0.0488 µg/mL
- concentration at 8 h ([1]; subject C-01): 0.0467 µg/mL
- concentration at 10 h ([1]; subject C-01): 0.0376 µg/mL
- concentration at 16 h ([1]; subject C-01): 0.0228 µg/mL
- concentration at 24 h ([1]; subject C-01): 0.0143 µg/mL
- concentration at 0 h ([1]; subject C-02): 0 µg/mL
- concentration at 0.25 h ([1]; subject C-02): 0.00536 µg/mL
- concentration at 0.5 h ([1]; subject C-02): 0.0143 µg/mL
- concentration at 1 h ([1]; subject C-02): 0.0238 µg/mL
- concentration at 2 h ([1]; subject C-02): 0.0379 µg/mL
- concentration at 3 h ([1]; subject C-02): 0.0432 µg/mL
- concentration at 4 h ([1]; subject C-02): 0.0448 µg/mL
- concentration at 5 h ([1]; subject C-02): 0.0381 µg/mL
- concentration at 6 h ([1]; subject C-02): 0.0404 µg/mL
- concentration at 8 h ([1]; subject C-02): 0.0334 µg/mL
- concentration at 10 h ([1]; subject C-02): 0.0289 µg/mL
- concentration at 16 h ([1]; subject C-02): 0.0192 µg/mL
- concentration at 24 h ([1]; subject C-02): 0.0114 µg/mL
- concentration at 0 h ([1]; subject C-03): 0 µg/mL
- concentration at 0.25 h ([1]; subject C-03): 0.00513 µg/mL
- concentration at 0.5 h ([1]; subject C-03): 0.0109 µg/mL
- concentration at 1 h ([1]; subject C-03): 0.0217 µg/mL
- concentration at 2 h ([1]; subject C-03): 0.0319 µg/mL
- concentration at 3 h ([1]; subject C-03): 0.0366 µg/mL
- concentration at 4 h ([1]; subject C-03): 0.04 µg/mL
- concentration at 5 h ([1]; subject C-03): 0.0397 µg/mL
- concentration at 6 h ([1]; subject C-03): 0.0355 µg/mL
- concentration at 8 h ([1]; subject C-03): 0.0376 µg/mL
- concentration at 10 h ([1]; subject C-03): 0.0301 µg/mL
- concentration at 16 h ([1]; subject C-03): 0.0216 µg/mL
- concentration at 24 h ([1]; subject C-03): 0.0158 µg/mL
- ionization ([2]; at physiological pH (1.2 to 6.8)): not ionized
- LogP [2]: 3.53
- solubility ([2]; in the physiological pH range (1.2 to 6.8)): about 0.04 mg/ml
- oral bioavailability [3]: approximately 50%
